Measurements taken from patent US20210347805A1, “AZITHROMYCIN DERIVATIVES CONTAINING A PHOSPHONIUM ION AS ANTICANCER AGENTS” (RISING TIDE FOUNDATION, priority 2018, published 2021).

The molecules below were run on MDA-231 cancer cells (assay: Inhibition of proliferation assay: cell confluence (IncuCyte live cell imaging)). Settings: MDA-231 cells; compound at 10 μM; IncuCyte imaging over 4-5 d.
Type: cell-based
Description: The confluence value is a surrogate for cell proliferation and growth. The value is expressed as a percent confluence, which represents the fraction of culture dish-surface that is occupied by cells. As the number of cells in the dish increases over time due to proliferation, so will their coverage of that surface increase. Expansion of the cell population on the cell culture-dish surface and confluence have mostly a linear relationship until the cells on the plate surface begin to reach saturation or maximum density. Confluence is determined based on image analysis. Image based software can identify objects in the image field base on changes to pixel density in a grey scale image. The software can then assign a mask to those pixels within the object. Objects can be ‘gated’ out based on size and shape. To determine cell confluence, images of cells are first masked as objects. The surface area of the image that is masked is measured and compared to the total surface area of the culture dish surface to obtain a percent confluence. MDA-231 cancer cells were obtained from ATCC. Cells were cultured in Dulbecco's Modified Eagle Medium (DMEM) supplemented with 10% Fetal Bovine Serum (FBS), 2 mM Glutamax, 1 mM Non Essential Amino Acid (NEAA) solution and 1 mM sodium pyruvate. […] Final DMSO concentrations were ≤0.1%. Images were acquired with an IncuCyte Live Cell Imaging microscopy (Essen Bioscience) at every 3 h under cell culture conditions with 10× objective over 4-5 d. Cell confluence was calculated from one field of view per well using the IncuCyte in-built algorithm. Relative confluence values were obtained by normalising each value to the time zero value in each sample.

Row | Compound | % Confluence [%]
1 | CC[C@H]1OC(=O)[C@H](C)[C@@H](O[C@H]2C[C@@](C)(OC)[C@@H](O)[C@H](C)O2)[C@H](C)[C@@H](O[C@@H]2O[C@H](C)C[C@H](N(C)C)[C@H]2O)[C@](C)(O)C[C@@H](C)CN(C)[C@H](C)[C@@H](O)[C@]1(C)O [Azithromycin] | 99.1
2 | CC[C@H]1OC(=O)[C@H](C)[C@@H](O[C@H]2C[C@@](C)(OC)[C@@H](O)[C@H](C)O2)[C@H](C)[C@@H](O[C@@H]2O[C@H](C)C[C@H](N(C)C)[C@H]2O)[C@](C)(O)C[C@@H](C)CN(C(=O)CCCCCCCCCCCCC[P+](c2ccccc2)(c2ccccc2)c2cnn(C)c2)[C@H](C)[C@@H](O)[C@]1(C)O.[Cl-] [Example 1, {14-[(2R,3S,4R,5R,8R,10R,11R,12S,13S,14R)-11-{[(2S,3R,4S,6R)-4-(dimethylamino)-3-hydroxy-6-methyloxan-2-yl]oxy}-2-ethyl-3,4,10-trihydroxy-13-{[(2R,4R,5S,6S)-5-hydroxy-4-methoxy-4,6-dimethyloxan-2-yl]oxy}-3,5,8,10,12,14-hexamethyl-15-oxo-1-oxa-6-azacyclopentadecan-6-yl]-14-oxotetradecyl}(1-methyl-1H-pyrazol-4-yl)diphenylphosphonium chloride] | 4.3
3 | CC[C@H]1OC(=O)[C@H](C)[C@@H](O[C@H]2C[C@@](C)(OC)[C@@H](O)[C@H](C)O2)[C@H](C)[C@@H](O[C@@H]2O[C@H](C)C[C@H](N(C)C)[C@H]2O)[C@](C)(O)C[C@@H](C)CN(C(=O)CCCCCCCCCCCC[P+](c2ccccc2)(c2ccccc2)c2cnn(C(C)C)c2)[C@H](C)[C@@H](O)[C@]1(C)O [Example 2, {13-[(2R,3S,4R,5R,8R,10R,11R,12S,13S,14R)-11-{[(2S,3R,4S,6R)-4-(dimethylamino)-3-hydroxy-6-methyloxan-2-yl]oxy}-2-ethyl-3,4,10-trihydroxy-13-{[(2R,4R,5S,6S)-5-hydroxy-4-methoxy-4,6-dimethyloxan-2-yl]oxy}-3,5,8,10,12,14-hexamethyl-15-oxo-1-oxa-6-azacyclopentadecan-6-yl]-13-oxotridecyl}diphenyl[1-(propan-2-yl)-1H-pyrazol-4-yl]phosphonium chloride] | 5.1
4 | CC[C@H]1OC(=O)[C@H](C)[C@@H](O[C@H]2C[C@@](C)(OC)[C@@H](O)[C@H](C)O2)[C@H](C)[C@@H](O[C@@H]2O[C@H](C)C[C@H](N(C)C)[C@H]2O)[C@](C)(O)C[C@@H](C)CN(C(=O)CCCCCCCCCCC[P+](c2ccccc2)(c2ccccc2)c2cnn(C(C)(C)C)c2)[C@H](C)[C@@H](O)[C@]1(C)O [Example 3, (1-tert-butyl-1H-pyrazol-4-yl)({12-[(2R,3S,4R,5R,8R,10R,11R,12S,13S,14R)-11-{[(2S,3R,4S,6R)-4-(dimethylamino)-3-hydroxy-6-methyloxan-2-yl]oxy}-2-ethyl-3,4,10-trihydroxy-13-{[(2R,4R,5S,6S)-5-hydroxy-4-methoxy-4,6-dimethyloxan-2-yl]oxy}-3,5,8,10,12,14-hexamethyl-15-oxo-1-oxa-6-azacyclopentadecan-6-yl]-12-oxododecyl})diphenylphosphonium chloride] | 4
5 | CC[C@H]1OC(=O)[C@H](C)[C@@H](O[C@H]2C[C@@](C)(OC)[C@@H](O)[C@H](C)O2)[C@H](C)[C@@H](O[C@@H]2O[C@H](C)C[C@H](N(C)C)[C@H]2O)[C@](C)(O)C[C@@H](C)CN(C(=O)CCCCCCCCCCC[P+](c2ccccc2)(c2ccccc2)c2cnn(C3CCC3)c2)[C@H](C)[C@@H](O)[C@]1(C)O.[Cl-] [Example 4, (1-cyclobutyl-1H-pyrazol-4-yl)({12-[(2R,3S,4R,5R,8R,10R,11R,12S,13S,14R)-11-{[(2S,3R,4S,6R)-4-(dimethylamino)-3-hydroxy-6-methyloxan-2-yl]oxy}-2-ethyl-3,4,10-trihydroxy-13-{[(2R,4R,5S,6S)-5-hydroxy-4-methoxy-4,6-dimethyloxan-2-yl]oxy}-3,5,8,10,12,14-hexamethyl-15-oxo-1-oxa-6-azacyclopentadecan-6-yl]-12-oxododecyl})diphenylphosphonium chloride] | 4.4
6 | CC[C@H]1OC(=O)[C@H](C)[C@@H](O[C@H]2C[C@@](C)(OC)[C@@H](O)[C@H](C)O2)[C@H](C)[C@@H](O[C@@H]2O[C@H](C)C[C@H](N(C)C)[C@H]2O)[C@](C)(O)C[C@@H](C)CN(C(=O)CCCCCCC[P+](c2cc(C)cc(C)c2)(c2cc(C)cc(C)c2)c2cnn(C(C)C)c2)[C@H](C)[C@@H](O)[C@]1(C)O.[Cl-] [Example 5, {8-[(2R,3S,4R,5R,8R,10R,11R,12S,13S,14R)-11-{[(2S,3R,4S,6R)-4-(dimethylamino)-3-hydroxy-6-methyloxan-2-yl]oxy}-2-ethyl-3,4,10-trihydroxy-13-{[(2R,4R,5S,6S)-5-hydroxy-4-methoxy-4,6-dimethyloxan-2-yl]oxy}-3,5,8,10,12,14-hexamethyl-15-oxo-1-oxa-6-azacyclopentadecan-6-yl]-8-oxooctyl}bis(3,5-dimethylphenyl)[1-(propan-2-yl)-1H-pyrazol-4-yl]phosphonium chloride] | 23.1
7 | CC[C@H]1OC(=O)[C@H](C)[C@@H](O[C@H]2C[C@@](C)(OC)[C@@H](O)[C@H](C)O2)[C@H](C)[C@@H](O[C@@H]2O[C@H](C)C[C@H](N(C)C)[C@H]2O)[C@](C)(O)C[C@@H](C)CN(C(=O)CCCCCC[P+](c2cc(C)cc(C)c2)(c2cc(C)cc(C)c2)c2cnn(C(C)C)c2)[C@H](C)[C@@H](O)[C@]1(C)O.[Cl-] [Example 6, {7-[(2R,3S,4R,5R,8R,10R,11R,12S,13S,14R)-11-{[(2S,3R,4S,6R)-4-(dimethylamino)-3-hydroxy-6-methyloxan-2-yl]oxy}-2-ethyl-3,4,10-trihydroxy-13-{[(2R,4R,5S,6S)-5-hydroxy-4-methoxy-4,6-dimethyloxan-2-yl]oxy}-3,5,8,10,12,14-hexamethyl-15-oxo-1-oxa-6-azacyclopentadecan-6-yl]-7-oxoheptyl}bis(3,5-dimethylphenyl)[1-(propan-2-yl)-1H-pyrazol-4-yl]phosphonium chloride] | 15.3
8 | CC[C@H]1OC(=O)[C@H](C)[C@@H](O[C@H]2C[C@@](C)(OC)[C@@H](O)[C@H](C)O2)[C@H](C)[C@@H](O[C@@H]2O[C@H](C)C[C@H](N(C)C)[C@H]2O)[C@](C)(O)C[C@@H](C)CN(C(=O)CCCCCC[P+](c2cc(C)cc(C)c2)(c2cc(C)cc(C)c2)c2cc(C)cc(C)c2)[C@H](C)[C@@H](O)[C@]1(C)O.[Cl-] [Example 7, {7-[(2R,3S,4R,5R,8R,10R,11R,12S,13S,14R)-11-{[(2S,3R,4S,6R)-4-(dimethylamino)-3-hydroxy-6-methyloxan-2-yl]oxy}-2-ethyl-3,4,10-trihydroxy-13-{[(2R,4R,5S,6S)-5-hydroxy-4-methoxy-4,6-dimethyloxan-2-yl]oxy}-3,5,8,10,12,14-hexamethyl-15-oxo-1-oxa-6-azacyclopentadecan-6-yl]-7-oxoheptyl}tris(3,5-dimethylphenyl)phosphonium chloride] | 4.6
9 | CC[C@H]1OC(=O)[C@H](C)[C@@H](O[C@H]2C[C@@](C)(OC)[C@@H](O)[C@H](C)O2)[C@H](C)[C@@H](O[C@@H]2O[C@H](C)C[C@H](N(C)C)[C@H]2O)[C@](C)(O)C[C@@H](C)CN(C(=O)CCCCCCCCCCCCC[P+](c2ccccc2)(c2ccccc2)C2CCOCC2)[C@H](C)[C@@H](O)[C@]1(C)O.[Cl-] [Example 8, {14-[(2R,3S,4R,5R,8R,10R,11R,12S,13S,14R)-11-{[(2S,3R,4S,6R)-4-(dimethylamino)-3-hydroxy-6-methyloxan-2-yl]oxy}-2-ethyl-3,4,10-trihydroxy-13-{[(2R,4R,5S,6S)-5-hydroxy-4-methoxy-4,6-dimethyloxan-2-yl]oxy}-3,5,8,10,12,14-hexamethyl-15-oxo-1-oxa-6-azacyclopentadecan-6-yl]-14-oxotetradecyl}(oxan-4-yl)diphenylphosphonium chloride] | 5.5
10 | CC[C@H]1OC(=O)[C@H](C)[C@@H](O[C@H]2C[C@@](C)(OC)[C@@H](O)[C@H](C)O2)[C@H](C)[C@@H](O[C@@H]2O[C@H](C)C[C@H](N(C)C)[C@H]2O)[C@](C)(O)C[C@@H](C)CN(C(=O)CCCCCCCCCCCC[P+](C2CCCC2)(C2CCCC2)C2CCCC2)[C@H](C)[C@@H](O)[C@]1(C)O.[Cl-] [Example 9, tricyclopentyl({13-[(2R,3S,4R,5R,8R,10R,11R,12S,13S,14R)-11-{[(2S,3R,4S,6R)-4-(dimethylamino)-3-hydroxy-6-methyloxan-2-yl]oxy}-2-ethyl-3,4,10-trihydroxy-13-{[(2R,4R,5S,6S)-5-hydroxy-4-methoxy-4,6-dimethyloxan-2-yl]oxy}-3,5,8,10,12,14-hexamethyl-15-oxo-1-oxa-6-azacyclopentadecan-6-yl]-13-oxotridecyl})phosphonium chloride] | 4

Same assay, conditions: MDA-231 cells; compound at 100 μM; IncuCyte imaging over 4-5 d

Row | Compound | % Confluence [%]
11 | CC[C@H]1OC(=O)[C@H](C)[C@@H](O[C@H]2C[C@@](C)(OC)[C@@H](O)[C@H](C)O2)[C@H](C)[C@@H](O[C@@H]2O[C@H](C)C[C@H](N(C)C)[C@H]2O)[C@](C)(O)C[C@@H](C)CN(C)[C@H](C)[C@@H](O)[C@]1(C)O [Azithromycin] | 17
